Format in all cases: cell-based
For test [1], the system named is Bacillus anthracis, Sterne 34F2. Briefly: microbe, parasite or virus in culture. The note with it: STERNE34F2, read-out: MIC B.a.
The test system of test [2] is Bacillus subtilis (ATCC 23857). In words: MIC determination, microbroth dilution. The note with it: ATCC23857; Bacillus subtilis (ATCC 23857); read-out: MIC B.s. A general note: In broth dilution the organism is exposed to a series of concentrations in liquid medium.
Test [3] relates to Enterococcus faecalis (ATCC 33186). In words: MIC determination, microbroth dilution. As to conditions: ATCC33186; Enterococcus faecalis (ATCC 33186); read-out: MIC E.f.
Test [4] deals with Staphylococcus aureus (ATCC 29213). Briefly: MIC determination, microbroth dilution. As to conditions: ATCC29213; Staphylococcus aureus (ATCC 29213); read-out: MIC S.a.
In test [5] the test system is MRSA, Staphylococcus aureus (NRS70). In words: MIC determination, microbroth dilution. As to conditions: Staphylococcus aureus (NRS70); read-out: MIC MRSA.
For test [6], the system named is Streptococcus pneumoniae (R6). Briefly: MIC determination, microbroth dilution.
Test [7] has as its system Streptococcus pyogenes (ATCC 700294). Briefly: MIC determination, microbroth dilution. As to conditions: ATCC700294; Streptococcus pyogenes (ATCC 700294); read-out: MIC S. py.
Test [8] has as its system M. tuberculosis clinical isolates. In words: microbe, parasite or virus in culture. As to conditions: Mycobacterium tuberculosis, H37RV, read-out: MIC H37Rv.
Test [9] deals with acinetobacter baumannii (ATCC 19606). In words: MIC determination, microbroth dilution. As to conditions: ATCC19606.
In test [10] the test system is Burkholderia cepacia (ATCC 25416). Briefly: MIC determination, microbroth dilution. As to conditions: Burkholderia cepacia, ATCC25416, read-out: MIC B.c., Burkholderia cepacia (ATCC 25416).
Test [11] relates to Escherichia coli (ATCC 700926). In words: MIC determination, microbroth dilution. On the procedure: MICs were determined using the microbroth dilution method according to Clinical Laboratory Standards Institute (CLSI; National, C. F. C. L. S., Methods for Dilution Antimicrobial Susceptibility Tests for Bacteria Grow aerobically-Seventh Edition: Approved Standard M7-A7, CLSI, Wayne, Pa., USA, 2008) and were read by visual inspection. Two fold serial dilutions of antibiotic in 100 μL of the appropriate broth media were first prepared in 96-well round bottom microtiter plates (Nalge Nunc International, Rochester, N.Y., USA). An equivalent volume (100 μL) of bacterial broth inocula containing approximately 10^5 bacterial cfu/mL was added to each well to give final concentrations of drug starting at 200 μg/mL and the plates were incubated aerobically at 37° C. M. tuberculosis microtiter plates were incubated for 7 days and all other strains were incubated overnight. After incubations, in all cases the MIC was recorded as the lowest concentration of drug that prevented bacterial growth.

The test system of test [12] is E. coli K12 ΔtolC. In words: microbe, parasite or virus in culture. As to conditions: Escherichia coli, read-out: MIC E.c. Δtolc.
In test [13] the test system is Klebsiella pneumoniae (ATCC 33495). In words: MIC determination, microbroth dilution. As to conditions: ATCC33495.
Test [14] deals with Pseudomonas aeruginosa (PA01). Briefly: MIC determination, microbroth dilution.
Test [15] concerns Proteus mirabilis (ATCC 25933). Briefly: MIC determination, microbroth dilution. As to conditions: ATCC25933.
Test [16] relates to Proteus vulgaris (ATCC 33420). In words: MIC determination, microbroth dilution. The note with it: ATCC33420.
The test system of test [17] is Stenotrophomonas maltophilia (ATCC 13637). Briefly: MIC determination, microbroth dilution. The note with it: ATCC13637; Stenotrophomonas maltophilia (ATCC 13637); read-out: MIC S.m.
For test [18], the system named is Streptococcus pneumoniae clinical isolates representing several serotypes. In words: MIC determination, Streptococcus pneumoniae panel of clinical isolates (Table 7). The note with it: Streptococcus pneumoniae.
Where [19] appears, read: Streptococcus pneumoniae (R6), read-out: MIC S. pn.
The mark [20] stands for this setting: ATCC700926, Escherichia coli (ATCC 700926), read-out: MIC E.c.

In brackets after ≈: the same amount, converted by molar mass. Where a name gives a salt, the structure may show the parent alone. Read-outs that look alike come from different tables or passages of the source.

Turning to `CN[C@@H]1[C@H](O)[C@H](NC)C2O[C@]3(O)C(OC2[C@H]1O)O[C@H](C)C[C@@]3(O)CNCc1ccc2c(c1)OCO2` (stereo partly drawn) [compound 36], the MIC was greater than 200 µg/mL in [1]; 12.5 µg/mL (≈ 25.1 µM) in test [2]; 100 µg/mL (≈ 201 µM) in test [3]; 100 µg/mL (≈ 201 µM) in test [4]; greater than 200 µg/mL in test [5]; 25 µg/mL (≈ 50.2 µM) in test [6] (setting [19]). The MIC was 25 µg/mL (≈ 50.2 µM) in test [7] and 50 µg/mL (≈ 100 µM) in test [8].

For the molecule `CN[C@@H]1[C@H](O)[C@H](NC)C2O[C@]3(O)C(OC2[C@H]1O)O[C@H](C)C[C@@]3(O)CNCc1cn(C)c2ccccc12` (stereo partly drawn) [compound 37], the MIC was greater than 200 µg/mL in test [1]; 12.5 µg/mL (≈ 24.7 µM) in test [2]; 50 µg/mL (≈ 98.7 µM) in test [3]; 50 µg/mL (≈ 98.7 µM) in test [4]; 200 µg/mL (≈ 395 µM) in test [5]; 25 µg/mL (≈ 49.3 µM) in [6] (setting [19]). For the same molecule, the results for the MIC in test [7] and in [8] were 12.5 µg/mL (≈ 24.7 µM) and 50 µg/mL (≈ 98.7 µM), respectively.

In the case of `CN[C@@H]1[C@H](O)[C@H](NC)C2O[C@]3(O)C(OC2[C@H]1O)O[C@H](C)C[C@@]3(O)CNCCCc1ccco1` (stereo partly drawn) [compound 38], the MIC in test [1] is greater than 200 µg/mL; in test [2] it was 6.25 µg/mL (≈ 13.3 µM); in test [3], 50 µg/mL (≈ 106 µM); in test [4], 50 µg/mL (≈ 106 µM); in test [5] it was 100 µg/mL (≈ 212 µM); in test [6] (setting [19]), 12.5 µg/mL (≈ 26.5 µM). The MIC in test [7] was found to be 25 µg/mL (≈ 53 µM); in test [8], 6.3 µg/mL (≈ 13.4 µM).

With `CN[C@@H]1[C@H](O)[C@H](NC)C2O[C@]3(O)C(OC2[C@H]1O)O[C@H](C)C[C@@]3(O)CNCc1ccc2ccccc2c1` (stereo partly drawn) [compound 39], the MIC was greater than 200 µg/mL in [1]; 25 µg/mL (≈ 49.6 µM) in test [2]; 50 µg/mL (≈ 99.3 µM) in test [3]; 100 µg/mL (≈ 199 µM) in [4]; 100 µg/mL (≈ 199 µM) in test [5]; 12.5 µg/mL (≈ 24.8 µM) in test [6] (setting [19]). Besides, the MIC in [7] amounted to 12.5 µg/mL (≈ 24.8 µM); in [8], 50 µg/mL (≈ 99.3 µM).

Regarding `CN[C@@H]1[C@H](O)[C@H](NC)C2O[C@]3(O)C(OC2[C@H]1O)O[C@H](C)C[C@@]3(O)CNCc1cccc(C(F)(F)F)c1` (stereo partly drawn) [compound 50], the MIC in test [1] was greater than 200 µg/mL; in test [2], 12.5 µg/mL (≈ 24 µM); in test [3], 25 µg/mL (≈ 47.9 µM); in [4], 50 µg/mL (≈ 95.9 µM); in test [5], 50 µg/mL (≈ 95.9 µM); in test [6] (setting [19]), 3.13 µg/mL (≈ 6 µM). Moreover, the MIC in test [7] is 1.56 µg/mL (≈ 2.99 µM).

For the molecule `CN[C@@H]1[C@H](O)[C@H](NC)[C@H]2O[C@]3(O)[C@H](O[C@@H]2[C@H]1O)O[C@H](C)C[C@@]3(O)CNCc1cncnc1` [compound 66, 3′-(R)-3′-[(pyrimidin-5-ylmethyl)aminomethyl]dihydrospectinomycin tetrahydrobromide], the MIC in [1] was 100 µg/mL; in [2] it was 200 µg/mL; in test [4], greater than 200 µg/mL; in test [5] it was greater than 200 µg/mL; in test [6] (setting [19]), 0.8 µg/mL; in test [7], 100 µg/mL. Further, the MIC is greater than 200 µg/mL in [9]; greater than 200 µg/mL in test [10]; 50 µg/mL in [11] (Escherichia coli, ATCC700926, read-out: MIC E.c.); 25 to 50 µg/mL in [12]; 100 to 200 µg/mL in test [13]; greater than 200 µg/mL in [14]. In addition, the MIC was greater than 200 µg/mL in test [15], greater than 200 µg/mL in test [16] and 100 µg/mL in test [17].

For the molecule `CN[C@@H]1[C@H](O)[C@H](NC)[C@H]2O[C@]3(O)[C@H](O[C@@H]2[C@H]1O)O[C@H](C)C[C@@]3(O)CNCc1cnccn1` [compound 67, 3′-(R)-3′-[(pyrazin-2-ylmethyl)aminomethyl]dihydrospectinomycin tetrahydrobromide], the MIC in test [1] was 200 µg/mL; in test [2], 100 µg/mL; in test [4] it was greater than 200 µg/mL; in test [5], greater than 200 µg/mL; in test [6] (setting [19]) it was 6.3 µg/mL; in test [7] it was 100 µg/mL. For the same molecule, the MIC in [9] is greater than 200 µg/mL; in test [10], greater than 200 µg/mL; in test [11] (setting [20]) it was 50 to 100 µg/mL; in test [12], 25 to 50 µg/mL; in test [13], 100 µg/mL; in test [14], greater than 200 µg/mL. Also, the MIC in test [15] was greater than 200 µg/mL; in test [16] it was greater than 200 µg/mL; in [17] it was 100 µg/mL.

Take `CN[C@@H]1[C@H](O)[C@H](NC)[C@H]2O[C@]3(O)[C@H](O[C@@H]2[C@H]1O)O[C@H](C)C[C@@]3(O)CNCc1ccc(SC)cc1` [compound 68, 3′-(R)-3′-[(4-(methylthio)benzylaminomethyl)]dihydrospectinomycin trihydrobromide]: the MIC is 25 µg/mL in [1]; 25 µg/mL in [2]; 25 µg/mL in test [4]; 50 µg/mL in test [5]; 1.6 µg/mL in test [6] (setting [19]); 3.1 µg/mL in test [7]. The MIC in test [9] is greater than 200 µg/mL; in [10] it was greater than 200 µg/mL; in [11] (setting [20]) it was 50 µg/mL; in test [12], 12.5 µg/mL; in test [13], 100 to 200 µg/mL; in [14] it was 200 µg/mL. The values for the MIC in [15], in test [16] and in [17] were greater than 200 µg/mL, greater than 200 µg/mL and 25 µg/mL, respectively.

As for `CN[C@@H]1[C@H](O)[C@H](NC)[C@H]2O[C@]3(O)[C@H](O[C@@H]2[C@H]1O)O[C@H](C)C[C@@]3(O)CNCc1ccc(S(C)(=O)=O)cc1` [compound 69, 3′-(R)-3′-[(4-(methylsulfonyl)benzylaminomethyl)]dihydrospectino-mycin trihydrobromide], the MIC in [1] is greater than 200 µg/mL; in test [2] it was greater than 200 µg/mL; in test [4] it was greater than 200 µg/mL; in [5] it was greater than 200 µg/mL; in [6] (setting [19]) it was 100 µg/mL; in test [7] it was 100 µg/mL. Also, the MIC in test [9] was greater than 200 µg/mL; in test [10], greater than 200 µg/mL; in test [11] (setting [20]), 50 to 100 µg/mL; in test [12], 12.5 to 25 µg/mL; in [13], greater than 200 µg/mL; in test [14], greater than 200 µg/mL. Besides, the MIC in test [15], in test [16] and in test [17] was greater than 200 µg/mL throughout.

Consider `CN[C@@H]1[C@H](O)[C@H](NC)[C@H]2O[C@]3(O)[C@H](O[C@@H]2[C@H]1O)O[C@H](C)CC3(O)CN` (stereo partly drawn) [mSPC, 3′-aminomethyl-3′-hydroxy spectinomycin, reference compound], for which the MIC in test [6] (Streptococcus pneumoniae, S. pneumoniae R6, Drug Susceptible, read-out: MIC R6) amounted to 50 µg/mL (≈ 138 µM); in test [18] (BAA1407, S. pneumoniae BAA-1407, Macrolide Resistant, read-out: MIC BAA-1407), 200 µg/mL (≈ 550 µM); in test [18] (S. pneumoniae A66.1x, Drug Susceptible, read-out: MIC A66.1x), 50 µg/mL (≈ 138 µM); in test [18] (S. pneumoniae BHN97x, Drug Susceptible, read-out: MIC BHN97x), 50 µg/mL (≈ 138 µM); in [18] (S. pneumoniae D39X, Drug Susceptible, read-out: MIC D39X), 100 µg/mL (≈ 275 µM); in test [18] (S. pneumoniae Daw7, PenG Resistant, read-out: MIC Daw7), 100 µg/mL (≈ 275 µM). The MIC came out at 100 µg/mL (≈ 275 µM) in test [18] (S. pneumoniae Daw8, PenG Resistant, read-out: MIC Daw8); 50 µg/mL (≈ 138 µM) in [18] (S. pneumoniae Daw9, PenG Resistant, read-out: MIC Daw9); 100 µg/mL (≈ 275 µM) in [18] (S. pneumoniae Daw62, PenG Resistant, read-out: MIC Daw62); 100 µg/mL (≈ 275 µM) in [18] (S. pneumoniae Daw64, PenG Resistant, read-out: MIC Daw64); 50 µg/mL (≈ 138 µM) in [18] (S. pneumoniae OVA6, Macrolide Resistant, read-out: MIC OVA6); 50 µg/mL (≈ 138 µM) in [18] (S. pneumoniae T4X, Drug Susceptible, read-out: MIC T4X).

Source of the values: US10266544B2, “Aryl substituted aminomethyl spectinomycin analogs as antibacterial agents” (ST. JUDE CHILDREN'S RESEARCH HOSPITAL, INC., priority 2013, dated 2019).
